Measurements taken from PMC13128454, “Mutant p53 protein accumulation is selectively targetable by proximity-inducing drugs” (Nature Chemical Biology, 2025).
Several values for one entry are separate records, joined by “and”; a condition that tells them apart may be missing. Equal values may be shown once. Read-outs that look alike come from different tables or passages of the source. One block for each compound: values may come before it.

How the values were obtained:
Type in all cases: cell-based
[1] = test system: Calu-1 cells stably expressing Halo–p53-R273H (FL)–mCherry–2A–mTagBFP2-V5; experiment: CellTiter-Glo cell viability; conditions: CTG 4 days; for replicates (raw CTG signal): p53_construct Mut
[2] = CellTiter-Glo cell viability; conditions: human, p53_construct Mut, CTG 4 days, read-out: mean (normalized viability)
[3] = test system: Halo–p53-R273H (FL)–mCherry 293T cells versus parental 293T cells; experiment: flow-cytometry growth competition; conditions: for normalized_mCherry_percentage: R273H, day 8, normalized to DMSO
In short: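 Marker-positive and marker-negative cells mixed, plated at low density and treated with varying compound concentrations, passaged and retreated as needed. Fluorophore-positive versus negative fractions quantified by flow cytometry, gated on untreated mixtures.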

DU145 cells = experiment: CellTiter-Glo cell viability
Protocol: (§1) Cells were plated in 384-well plates (typically 1,500 cells per well) with varying concentrations of compounds, with a total volume of 50 μl per well. CTG reagent was added (25 μl) to the solutions, mixed and read out using an EnVision 2105 multimode plate reader.

NUGC-3 cells = experiment: CellTiter-Glo cell viability; conditions: NUGC3
Protocol: as §1

LNCaP cells = experiment: CellTiter-Glo cell viability; conditions: for mean_norm (normalized viability): LNCAP, 4 day
Protocol: as §1

[4] = biological target: T1, p53-Y220C–PLK1 ternary complex (Homo sapiens, UniProt P04637+P53350, M133L/N239Y/N268D/V203A/Y220C); experiment: NanoBiT ternary complex assay in cotransfected 293T cells; conditions: for NLuc Signal, Average: 0 nM: 323
T1 construct: NLS–LgBiT–p53-Y220C (DBD) and mEGFP–PLK1–SmBiT; expressed in transfected cells; host or cells: 293T cells, transient cotransfection
Excerpt: After 1 day, the cells were passaged into 384-well plates and treated with varying concentrations of compound.

[5] = test system: p53 transcriptional targets in Huh7 cells (TP53^Y220C/Y220C); experiment: Huh7 RNA-seq and GSEA; conditions: 4 μM, 24 h, versus DMSO
Protocol: Huh7 cells were passaged into six-well plates and treated with PMV6 (4 μM), p53-01 (4 μM) or DMSO for 24 h. Cells were washed once with cold PBS. Subsequently, TRIzol (Invitrogen) was added to cells and, following the manufacturer’s protocol, RNA was extracted. RNA concentration was monitored using a Qubit fluorometer (Thermo Fisher) and RNA integrity was analyzed using an Agilent Bioanalyzer. The NEBNext Ultra II RNA library prep kit (Illumina) was used to prepare an RNA-seq library. A NovaSeq 6000 machine (Illumina) was used for paired-end 150-bp RNA-seq. STAR/RSEM[68],[71] was used to align RNA-seq reads to the GENCODE v38 transcript ref.[72] and generate a count matrix. Raw counts were rounded and DESeq2 was used for downstream analysis. A preranked GSEA[74] was performed using the DESeq2 t statistic (versus DMSO-treated cells) as a rank metric using the Fischer p53 targets geneset.

[6] = Concentration 2.44141 nM, 1 day
[7] = Concentration 4.88281 nM, 1 day
[8] = Concentration 9.76562 nM, 1 day
[9] = Concentration 19.5312 nM, 1 day
[10] = Concentration 39.0625 nM, 1 day

Structure (SMILES): CC[C@@H]1C(=O)N(C)c2cnc(Nc3ccc(C(=O)NC4CCN(C)CC4)cc3OC)nc2N1C1CCCC1 [BI2536]
- differential proliferation effect ([1]; Calu-1 p53 WT versus p53-R273H): lacked a differential proliferation effect
- replicates (raw CTG signal) ([1]; Compound_conc 0.0488281): 197890 and 183273 and 187583 and 162992
- replicates (raw CTG signal) ([1]; Compound_conc 0.0976562): 191053 and 161144 and 203266 and 199816
- replicates (raw CTG signal) ([1]; Compound_conc 0.195312): 176045 and 169600 and 186049 and 169525
- replicates (raw CTG signal) ([1]; Compound_conc 0.390625): 185229 and 162171 and 189977 and 157434
- replicates (raw CTG signal) ([1]; Compound_conc 0.78125): 218482 and 178554 and 204635 and 180452
- replicates (raw CTG signal) ([1]; Compound_conc 1.5625): 174155 and 148473 and 186714 and 171263
- replicates (raw CTG signal) ([1]; Compound_conc 3.125): 194944 and 176651 and 192942 and 172246
- replicates (raw CTG signal) ([1]; Compound_conc 6.25): 144484 and 119258 and 155344 and 132872
- replicates (raw CTG signal) ([1]; Compound_conc 12.5): 123471 and 113233 and 124855 and 101499
- replicates (raw CTG signal) ([1]; Compound_conc 25): 102356 and 92186 and 120326 and 90854
- replicates (raw CTG signal) ([1]; Compound_conc 50): 87813 and 79696 and 71081 and 71223
- replicates (raw CTG signal) ([1]; Compound_conc 100): 63459 and 73795 and 72267 and 61765
- viability at 4 days ([2]; Compound_conc 0.0488281): 112%
- viability at 4 days ([2]; Compound_conc 0.0976562): 115%
- viability at 4 days ([2]; Compound_conc 0.195312): 107%
- viability at 4 days ([2]; Compound_conc 0.390625): 106%
- viability at 4 days ([2]; Compound_conc 0.78125): 119%
- viability at 4 days ([2]; Compound_conc 1.5625): 104%
- viability at 4 days ([2]; Compound_conc 3.125): 113%
- viability at 4 days ([2]; Compound_conc 6.25): 84.3%
- viability at 4 days ([2]; Compound_conc 12.5): 70.7%
- viability at 4 days ([2]; Compound_conc 25): 62%
- viability at 4 days ([2]; Compound_conc 50): 47.3%
- viability at 4 days ([2]; Compound_conc 100): 41.4%

- IC50 (DU145 cells; Homo sapiens, DU-145, 96 h, 4 day treatment): > 20000 nM
- IC50 (LNCaP cells; Homo sapiens, 96 h, LNCaP, 4 day treatment): 14100 nM
- EC50 ([4]; 24 h, n = 4, read-out: NanoBiT EC50): 2120 nM
- EC50 ([4]; 1 day, n = 6, Fig. 3b, read-out: EC50 NanoBiT ternary complex formation): 1400 nM
- NLuc Signal (replicate) ([4]; Concentration 1.2207 nM, 1 day): 300 and 316 and 296 and 324 and 308
- NLuc Signal, Average ([4]; Concentration 1.2207 nM, 1 day): 310
- NLuc Signal, Average [4, 6]: 339.333
- NLuc Signal (replicate) [4, 7]: 316 and 344 and 284 and 312 and 332
- NLuc Signal, Average [4, 7]: 317.333
- NLuc Signal, Average [4, 8]: 323.333
- NLuc Signal, Average [4, 9]: 322.667
- NLuc Signal, Average [4, 10]: 358
- NLuc Signal (replicate) ([4]; Concentration 78.125 nM, 1 day): 312 and 292 and 400 and 392 and 356
- NLuc Signal, Average ([4]; Concentration 78.125 nM, 1 day): 351.333
- NLuc Signal, Average ([4]; Concentration 156.25 nM, 1 day): 353.333
- NLuc Signal (replicate) ([4]; Concentration 312.5 nM, 1 day): 428 and 364 and 392 and 404 and 488
- NLuc Signal, Average ([4]; Concentration 312.5 nM, 1 day): 413.333
- NLuc Signal, Average ([4]; Concentration 625 nM, 1 day): 446
- NLuc Signal (replicate) ([4]; Concentration 1250 nM, 1 day): 704 and 792 and 644 and 588
- NLuc Signal, Average ([4]; Concentration 1250 nM, 1 day): 660
- NLuc Signal (replicate) ([4]; Concentration 2500 nM, 1 day): 988 and 1108 and 1092 and 1436 and 1288
- NLuc Signal, Average ([4]; Concentration 2500 nM, 1 day): 1167.33
- NLuc Signal, Average ([4]; Concentration 5000 nM, 1 day): 1222.67
- NLuc Signal, Average ([4]; Concentration 10000 nM, 1 day): 1201.33
- NanoBiT mean_norm ([4]; Concentration 19.5312): 1.047
- NanoBiT mean_norm ([4]; Concentration 39.0625): 1.0545
- NanoBiT mean_norm ([4]; Concentration 78.125): 1.0649
- NanoBiT mean_norm ([4]; Concentration 156.25): 1.0584
- NanoBiT mean_norm ([4]; Concentration 312.5): 1.026
- NanoBiT mean_norm ([4]; Concentration 625): 1.182
- NanoBiT mean_norm ([4]; Concentration 1250): 1.238
- NanoBiT mean_norm ([4]; Concentration 2500): 1.362
- NanoBiT mean_norm ([4]; Concentration 5000): 1.592
- NanoBiT mean_norm ([4]; Concentration 10000): 1.5997
- ternary complex formation between p53-Y220C and PLK1 ([4]; NanoBiT, 1 day): induce ternary complex formation
- Max_effect ([4]; sheet 5C): 1.5997
- EC50 ([4]; sheet 5C, read-out: EC50): 2120 nM
Structure (SMILES): CC[C@@H]1C(=O)N(C)c2cnc(Nc3ccc(C(=O)NCCOCCOCCOCCOCCC(=O)N4CCC(Nc5cccc6c5cc(C#CCNc5ccc(S(C)(=O)=O)cc5OC)n6CC(F)(F)F)CC4)cc3OC)nc2N1C1CCCC1 [p53-01, PMV6-PEG4-BI2536]
- normalized_mCherry_percentage ([3]; 1 nM): 95.51%
- normalized_mCherry_percentage ([3]; 10 nM): 97.26%
- normalized_mCherry_percentage ([3]; 100 nM): 96.23%
- normalized_mCherry_percentage ([3]; 1 uM): 90.97%
- activity in competition ([3]; day 8): did not observe any activity
- p5301_AUC_to_10uM (DU145 cells): 0.9088
- IC50 (NUGC-3 cells; Homo sapiens, NUGC-3, 96 h, 4 day treatment): 1710 nM
- p5301_AUC_to_10uM (NUGC-3 cells): 0.5108
- mean_norm (normalized viability) (LNCaP cells; Concentration 5000): 0.7565
- mean_norm (normalized viability) (LNCaP cells; Concentration 10000): 0.7384
- mean_norm (normalized viability) (LNCaP cells; Concentration 20000): 0.4932
- p5301_AUC_to_10uM (LNCaP cells; LNCaP): 0.8069
- NLuc Signal (replicate) [4, 6]: 356 and 348 and 308 and 360 and 340 and 324
- NLuc Signal (replicate) [4, 8]: 328 and 336 and 296 and 308 and 312 and 360
- NLuc Signal (replicate) [4, 9]: 352 and 360 and 304 and 296 and 324 and 300
- NLuc Signal (replicate) [4, 10]: 404 and 356 and 324 and 368 and 332 and 364
- NLuc Signal (replicate) ([4]; Concentration 156.25 nM, 1 day): 380 and 352 and 372 and 324 and 360 and 332
- NLuc Signal (replicate) ([4]; Concentration 625 nM, 1 day): 484 and 444 and 472 and 448 and 420 and 408
- NLuc Signal (replicate) ([4]; Concentration 5000 nM, 1 day): 1240 and 1080 and 1140 and 1304 and 1104 and 1468
- NLuc Signal (replicate) ([4]; Concentration 10000 nM, 1 day): 1052 and 1356 and 1056 and 1192 and 1180 and 1372
- normalized enrichment score (NES), Fischer p53 targets [5]: 1.33
